Several values for one entry are separate records, joined by “and”; a condition that tells them apart may be missing. Equal values may be shown once. Read-outs that look alike come from different tables or passages of the source.
Target: T1, human alpha 7-wt nAChR (Homo sapiens, UniProt P36544)
T1 construct: expressed in transfected cells
Test: Ca2+ flux imaging (FDSS) (protocol B)
Assay type: cell-based
Settings: for EC50: read-out: pEC50 (converted); for Emax: read-out: % Efficacy
Protocol: Example D.1 : Ca^2+ flux imaging (FDSS) (protocol B)
• a) Assay buffer Hanks buffered saline solution (HBSS, Invitrogen, Belgium), supplemented with 10 mM HEPES (Invitrogen, Belgium), CaCl2 to a final concentration of 5 mM, 0.1 % Bovine serum albumin (Sigma-Aldrich NV, Belgium). • b) Calcium-sensitive dye - Fluo-4AM Fluo-4AM (Molecular Probes, USA) was dissolved in DMSO containing 10% Pluronic acid (Molecular Probes, USA) to give a stock solution which was diluted in assay buffer supplemented with 5 mM probenicid (Sigma, Aldrich NV, Belgium) to give a final concentration of 2 µM • c) 384-well plates Black-sided, transparent bottomed 384 well plates coated with poly-D-lysine, PDL pre-coated (Coming, Incorporated, USA) • d) Calcium flux measurement A Functional drug screening system (FDSS, Hamamatsu) was used to measure intracellular free-calcium flux signals.
Monolayers of human alpha 7-wt nAChR-expressing cells were grown in black-sided, transparent bottomed 384 well plates coated with PDL for 24 hours prior to loading with a fluorescent calcium indicator, fluo-4AM for up to 120 minutes.
PAM activity was detected in real time by applying the compounds to be tested to the loaded cells along with an alpha 7 nicotinic receptor agonist during constant monitoring of cellular fluorescence in a FDSS. Compounds giving peak fluorescent responses greater than the response due to agonist alone, were consideted to be alpha 7 nAChR PAMs. The alpha 7 nicotinic receptor agonist was choline, applied at a sub-maximal concentration of 100 µM. In a further setting of the present invention the compounds were applied prior to the alpha 7 nicotinic receptor agonist, in a particular 10 minutes prior to the agonist.
A control response to choline was calculated on each plate from the difference in peak in fluorescence in wells receiving either choline or assay buffer alone. Compounds of the present invention were tested at a concentration range from 0.01 µM to 30 µM. Compounds were considered to have an interesting activity when they potentiated the choline signal at least with 200 % when tested at a concentration of 30 µM (the efficacy of 100 µM choline was defined as 100% in the absence of a PAM). An EC50 (or pEC50) was determined as a concentration relating to half the maximal effect, when a clear sigmoidal curve with top plateau was obtained.

T1 sequence (P36544 23-502): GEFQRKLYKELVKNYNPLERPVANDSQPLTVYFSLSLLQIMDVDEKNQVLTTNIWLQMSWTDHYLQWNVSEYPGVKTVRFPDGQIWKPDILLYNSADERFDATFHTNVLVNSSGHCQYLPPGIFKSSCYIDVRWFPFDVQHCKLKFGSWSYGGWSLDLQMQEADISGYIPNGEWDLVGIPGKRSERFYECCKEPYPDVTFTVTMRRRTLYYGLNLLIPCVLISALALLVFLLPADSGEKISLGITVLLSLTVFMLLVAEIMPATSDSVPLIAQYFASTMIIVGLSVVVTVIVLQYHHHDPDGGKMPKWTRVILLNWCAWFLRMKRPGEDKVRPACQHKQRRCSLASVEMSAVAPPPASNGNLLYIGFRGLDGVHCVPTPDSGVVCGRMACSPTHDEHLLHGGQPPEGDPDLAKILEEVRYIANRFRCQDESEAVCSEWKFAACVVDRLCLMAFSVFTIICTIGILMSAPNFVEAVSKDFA

EC50 (Ca2+ assay as described in D.1)	Structure (SMILES)	Emax	further results
–	Cc1cc(-c2ccc(N3CC4CCC(C3)O4)cc2CNC(=O)CC2CC2)cc(C)n1 [Compound 130]	–	Emax (Ca2+ assay as described in D.1): 95.5%
14.1 nM	Cc1cc(-c2ccc(N3C[C@@H](C)O[C@@H](C)C3)c(CNC(=O)c3ccc(F)cc3C)c2)cc(C)n1 [Compound 135]	–	–
120 nM	Cc1cc(-c2ccc(N3C[C@@H](C)O[C@@H](C)C3)c(F)c2CNC(=O)CC(C)C)cc(C)n1 [Compound 43]	–	–
–	Cc1cc(-c2c(F)cc(N3CCCC(C(F)(F)F)C3)cc2CNC(=O)C(C)C)cc(C)n1 (stereo not drawn) [Compound 96]	–	Emax (Ca2+ assay as described in D.1): 148%
178 nM	Cc1cc(-c2ccc(C3C[C@@H](C)O[C@@H](C)C3)c(F)c2CNC(=O)CC2CCC2)cc(C)n1 (relative stereo) [Compound 60]	–	–
575 nM	Cc1cc(-c2ccc(N3CCO[C@H](C(F)(F)F)C3)c(F)c2CNC(=O)C(C)C)cc(C)n1 [Compound 65]	–	–
41.7 nM	Cc1cc(-c2ccc(N3C[C@@H](C)O[C@@H](C)C3)c(F)c2CNC(=O)c2ccc(F)cc2C)cc(C)n1 [Compound 40]	–	–
–	Cc1cc(-c2ccc(N3CCOCC3)cc2CNC(=O)C(C)C)ccn1 [Compound 140]	–	% Efficacy (Ca2+ assay as described in D.1): 495.5% and 591.6%
347 nM	Cc1cc(-c2ccc(N3CCO[C@H](C(F)(F)F)C3)c(F)c2CNC(=O)c2cc(C)on2)cc(C)n1 [Compound 67]	–	–
269 nM	Cc1cc(-c2ccc(N3CCO[C@@H](C(F)(F)F)C3)c(F)c2CNC(=O)c2conc2C)cc(C)n1 [Compound 58]	–	–
–	Cc1cc(-c2ccc(N3CCOCC3)cc2CNC(=O)c2cc(C)on2)ccn1 [Compound 142]	–	Emax (Ca2+ assay as described in D.1): 545%
977 nM	Cc1cc(-c2ccc(N3C[C@@H](C)O[C@@H](C)C3)c(F)c2CNC(=O)c2cc(C)on2)cc(C)n1 [Compound 38]	–	–
91.2 nM	Cc1cc(-c2ccc(N3C[C@@H](C)O[C@@H](C)C3)c(F)c2CNC(=O)C2CCCCC2)cc(C)n1 [Compound 46]	–	–
–	Cc1cc(-c2ccc(N3CCOCC3)cc2CNC(=O)C2CC2)cc(C)n1 [Compound 30]	–	Emax (Ca2+ assay as described in D.1): 260%
589 nM	Cc1cc(-c2c(F)cc(N3C[C@@H](C)O[C@@H](C)C3)c(F)c2CNC(=O)C2CC2)cc(C)n1 [Compound 122]	–	–
–	Cc1cc(-c2ccc(N3CCCC(C(F)(F)F)C3)cc2CNC(=O)C(C)C)cc(C)n1 (stereo not drawn) [Compound 36]	–	Emax (Ca2+ assay as described in D.1): 131%
< 10 nM	Cc1cc(-c2c(F)cc(N3CCO[C@@H](C(F)(F)F)C3)cc2CNC(=O)CC(C)C)cc(C)n1 [Compound 101]	–	–
6.17 nM	Cc1cc(-c2c(F)cc(N3C[C@@H](C)O[C@@H](C)C3)cc2CNC(=O)CC2CCC2)cc(C)n1 [Compound 80]	–	–

Structure (SMILES)	EC50 (Ca2+ assay as described in D.1)	Emax	further results
Cc1cc(-c2ccc(N3C[C@@H](C)O[C@@H](C)C3)cc2CNC(=O)c2conc2C)ccn1 [Compound 12]	166 nM	562%	–
Cc1cc(-c2c(F)cc(N3C[C@@H](C)O[C@@H](C)C3)cc2CNC(=O)c2conc2C)cc(C)n1 [Compound 76]	~38 nM	572%	–
Cc1cc(-c2ccc(N3C[C@H](C(F)(F)F)C[C@H](C(F)(F)F)C3)cc2CNC(=O)c2ccc(F)cc2C)cc(C)n1 [Compound 20]	11 nM	466%	–
O=C(CC1CC1)NCc1cc(N2CCOCC2)ccc1-c1ccncc1 [Compound 139]	3160 nM	367%	–
Cc1cc(-c2ccc(N3CCOCC3)cc2CNC(=O)CC2CC2)cc(C)n1 [Compound 24]	1780 nM	466%	–
Cc1cc(-c2ccc(N3C[C@H](C(F)(F)F)C[C@H](C(F)(F)F)C3)cc2CNC(=O)CC2CC2)cc(C)n1 [Compound 22]	16.2 nM	458%	–
Cc1cc(-c2c(F)cc(N3C[C@@H](C)O[C@@H](C)C3)cc2CNC(=O)CC(C)C)cc(C)n1 [Compound 83]	7.08 nM	906%	–
Cc1cc(-c2ccc(N3C[C@H](C(F)(F)F)C[C@H](C(F)(F)F)C3)cc2CNC(=O)c2cc(C)on2)cc(C)n1 [Compound 21]	126 nM	541%	–
Cc1cc(-c2c(F)cc(N3CCCC(C(F)(F)F)C3)cc2CNC(=O)CC2CC2)cc(C)n1 (stereo not drawn) [Compound 95]	27.5 nM	427%	–

Source: patent EP2678315B1, “(Pyridin-4-yl)benzylamides as allosteric modulators of alpha 7 nAChR” (Janssen Pharmaceutica, N.V., priority 2011, dated 2012)
